Data published in US11932655B1, “12-bromo-2,16-dioxapentacyclo[7.7.5.01,21.03,8.010,15]henicosa3(8),10,12,14-tetraene-7,20-dione as an antimicrobial compound” (KING FAISAL UNIVERSITY, priority 2023, dated 2024).

Key:
Assay in all cases: Antimicrobial activity, agar dilution, exposure-time test
Assay type in all cases: cell-based
Conditions in all cases: after 10, 20, 40 and 60 minutes at all dilutions 1:100 to 1:800
Pseudomonas aeruginosa = system: Pseudomonas aeruginosa
Procedure: (§1) The antibacterial properties of the synthesized compound of 12-bromo-2,16-dioxapentacyclo[7.7.5.0^1,21.0^3,8.0^10,15]henicosa3(8),10,12,14-tetraene-7,20-dione were studied by the method of agar dilution. Test solutions of each compound was prepared in concentration of 1% using dimethylformamide as a solvent. Then they were diluted in physiological solution to obtain the final experimental dilutions of 1:100, 1:200, 1:400, and 1:800. The effect of these substances were compared with furacillin in a controllable study. The testing microbes used were gram positive bacteria Staphylococcus aureus, gram negative bacteria Pseudomonas aeruginosa, Escherichia coli, and Candida albicans fungus. The experiments used for this survey were meat-pentonlu agar (EPA) for cultivation of bacteria and Saburo environment for fungi. Each experiment used 1 mL of test solution on each plate for 500 minutes. Two drops of emulsified with microbes feel were added. All experimental samples were taken from the agar after 10, 20, 40, 60 minutes in the environment on the basis of Patrk planted. Bacteria were cultivated at a temperature of 37° C. for 1 day and the mushroom was kept in a thermostat for […] at a temperature of 28° C. Then results were checked. Those of the control and the antimicrobial activity for the synthesized compounds are listed in Table 1 below, with furacillin serving as a reference.

Candida albicans = system: Candida albicans
Procedure: as §1

Staphylococcus aureus = system: Staphylococcus aureus
Procedure: as §1

Escherichia coli = system: Escherichia coli
Procedure: as §1

Measured: inhibition activity compared with Furacilin

O=C1CCCC2=C1C1c3cc(Br)ccc3OC3(CCCC(=O)C13)O2 (stereo not shown) [12-bromo-2,16-dioxapentacyclo[7.7.5.0^1,21.0^3,8.0^10,15]henicosa3(8),10,12,14-tetraene-7,20-dione]
higher inhibition activity: all assays above
